Results: publication PMC10298530, “Synthesis and Anticancer Activity of A-Ring-Modified Derivatives of Dihydrobetulin” (International Journal of Molecular Sciences, 2023)
Several values for one entry are separate records, joined by “and”; a condition that tells them apart may be missing. Equal entries are not always repeated. Where two headings read alike, the source gives them in different places.

Tests used:
HBL-100/Dox cells [1] = experiment: ROS by H2DCFDA fluorescent staining, HBL-100/Dox; assay type: cell-based, human; details: MK 1.8 μM, 4 h
Experimental: (§1) The DNA marker, termed Hoechst 33342 Ready Flow Reagent, was used as a stock solution (Invitrogen, ThermoFisher Scientific, USA). The mitochondrial marker, LumiTracker Mito TMRE (tetramethylrhodamine, ethyl ester; Lumiprobe, Moscow, Russia), was dissolved in DMSO as 1.0 mM stock solution. The marker of reactive oxygen species, H2DCFDA (Lumiprobe, Moscow, Russia), was dissolved in DMSO as 100.0 μM stock solution. After incubation, the cells were incubated with FBS-free culture medium containing the dye mixture of Hoechst 33342 (final concentration 1.0 μM) and LumiTracker Mito TMRE (final concentration 1.0 μM), or H2DCFDA dye taken alone (final concentration 1.0 μM), for 30 min at 37 °C in darkness. Fluorescence, at 420 nm (Hoechst 33342), at 510 nm (TMRE), and at 575 nm (H2DCFDA), of the test cultures (including controls) was analyzed immediately using a fluorescence microscope CKX 53 (Olympus, Tokyo, Japan). The TMRE fluorescence intensity was quantified using Fiji (ImageJ).

HBL-100 cells [2] = experiment: Hoechst 33342 / TMRE fluorescent microscopy, HBL-100; assay type: cell-based, human
Experimental: as §1

HBL-100 cells [3] = experiment: Annexin V-FITC/PI assay, HBL-100; assay type: cell-based, human; details: 16 h
Experimental: Briefly, after exposing the cells to the tested and control compounds for 16 h, the cells were detached with accutase (HiMedia Laboratories, Maharashtra, India) and washed with cold PBS. Then, the cells were re-suspended in 100 μL of 1 × Binding Buffer at concentration 1 × 10^6 cells/mL and incubated with 5 μL Annexin V-FITC and 5 μL propidium iodide (PI) for 15 min at room temperature in darkness. After incubation, 400 μL of 1 × Binding Buffer was added to each tube. The samples were analyzed by flow cytometry (CytoFlex S, Beckman Coulter, Brea, CA, USA) within 1 h of staining, and the findings were analyzed using a trial version of the Kaluza software (Beckman Coulter, Brea, CA, USA).

RD TE32 = experiment: MTT cell viability assay, RD TE32; assay type: cell-based, human; details: for IC50: Homo sapiens
Description: Blokhin National Medical Research Center of Oncology (the Ministry of Health of the Russian Federation, Moscow).

HBL-100/Dox cells [4] = experiment: Hoechst 33342 / TMRE fluorescent microscopy, HBL-100/Dox; assay type: cell-based, human
Experimental: as §1

P-gp = molecular target: T1, P-gp (Homo sapiens, UniProt P08183); experiment: Rhodamine 123 efflux test (P-gp functional activity) in HBL-100/Dox cells; assay type: cell-based; details: Rh123 efflux, 60 min
T1 construct: endogenous in cells
Experimental: The functional activity of P-gp was evaluated using the previously described method. […] After incubation, the cells were washed twice and divided into several fractions (2.5 × 10^5 cells per point). One fraction was incubated in a pure medium, and the other one was incubated with MK (2.0 μM) added. […] Cell fluorescence was evaluated on CytoFlex S flow cytometer (Beckman Coulter, Brea, CA, USA). The results were analyzed using FlowJo software (ver. X 10.0.7r2, FlowJo Software, San Jose, CA, USA) and were represented as geometric mean fluorescence intensity (gMFI) and MAF coefficient, which were calculated using the following formula: MAF = (Mean (inh.) − Mean (free))/Mean (inh.), where MAF is the MDR activity functional, mean (free) is the mean value of cell fluorescence without inhibitor, and mean (inh.) is the mean value for cell fluorescence with inhibitor.

HBL-100/Dox cells [5] = experiment: Combined action of compounds, MTT assay on HBL-100/Dox cells; assay type: cell-based, human
Description: The results were expressed pictorially using Prism 6.0 (GraphPad Software, Boston, MA, USA).

T1 sequence (P08183 whole entry): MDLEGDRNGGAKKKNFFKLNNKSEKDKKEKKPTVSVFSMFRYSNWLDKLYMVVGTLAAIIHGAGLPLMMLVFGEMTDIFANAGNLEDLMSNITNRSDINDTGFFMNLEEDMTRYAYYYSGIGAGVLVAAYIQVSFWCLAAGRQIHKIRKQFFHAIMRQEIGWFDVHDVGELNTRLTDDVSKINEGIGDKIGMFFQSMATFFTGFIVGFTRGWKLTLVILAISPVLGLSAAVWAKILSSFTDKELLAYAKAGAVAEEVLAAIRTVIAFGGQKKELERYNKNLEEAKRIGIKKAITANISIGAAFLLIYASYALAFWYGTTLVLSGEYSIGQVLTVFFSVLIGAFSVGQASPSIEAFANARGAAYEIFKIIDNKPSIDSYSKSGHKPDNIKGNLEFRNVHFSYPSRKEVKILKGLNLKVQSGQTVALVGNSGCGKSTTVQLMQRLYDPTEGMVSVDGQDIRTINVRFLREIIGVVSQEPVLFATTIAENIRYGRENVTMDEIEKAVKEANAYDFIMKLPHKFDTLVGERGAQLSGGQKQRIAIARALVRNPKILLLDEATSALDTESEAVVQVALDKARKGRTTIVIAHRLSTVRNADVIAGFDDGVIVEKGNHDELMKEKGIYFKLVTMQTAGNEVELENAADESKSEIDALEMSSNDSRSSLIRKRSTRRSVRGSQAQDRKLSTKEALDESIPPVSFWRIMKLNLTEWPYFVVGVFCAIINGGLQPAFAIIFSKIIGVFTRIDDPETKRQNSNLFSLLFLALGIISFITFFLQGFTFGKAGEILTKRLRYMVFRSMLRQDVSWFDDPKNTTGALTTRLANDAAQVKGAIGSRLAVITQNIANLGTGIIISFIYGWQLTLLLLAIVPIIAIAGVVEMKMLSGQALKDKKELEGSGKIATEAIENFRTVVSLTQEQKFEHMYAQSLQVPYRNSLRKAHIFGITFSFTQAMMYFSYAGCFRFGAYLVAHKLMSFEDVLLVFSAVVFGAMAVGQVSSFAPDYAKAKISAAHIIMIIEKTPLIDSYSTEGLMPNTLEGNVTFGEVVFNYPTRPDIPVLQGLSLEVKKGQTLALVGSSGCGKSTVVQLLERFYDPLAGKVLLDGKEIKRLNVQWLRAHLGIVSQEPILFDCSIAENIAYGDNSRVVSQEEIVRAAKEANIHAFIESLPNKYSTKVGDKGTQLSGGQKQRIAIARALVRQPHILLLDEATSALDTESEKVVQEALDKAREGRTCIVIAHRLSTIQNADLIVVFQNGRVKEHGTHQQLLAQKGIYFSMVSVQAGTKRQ

## COC(=O)[C@]12CC[C@@H](C(C)C)[C@@H]1[C@H]1CC[C@@H]3[C@@](C)(CCC#N)[C@H](C(=O)C(Br)Br)CC[C@@]3(C)[C@]1(C)CC2 [compound 31, 2-Cyano-24,24-dibromo-4-oxo-3,4-seco-3,23-dinorlupan-28-oic acid methyl ester]
HBL-100/Dox cells [1]
  ROS generation, H2DCFDA staining: significantly heightened the ROS generation
HBL-100 cells [2]; 16 h, vs untreated control
  mitochondrial membrane potential (MMP), TMRE fluorescence intensity: significant (p < 0.05) reduction in MMP
HBL-100 cells [2]; Hoechst 33342, 16 h, IC50 values (MK 1.0 µM)
  number of cells with nuclear morphology changes: 21.2%
HBL-100 cells [3]; dose 2xIC50
  Dead cells: 5.59±0.46%
  Late apoptotic cells: 10.37 ± 1.01%
  Viable cells: 76.73 ± 1.18%
HBL-100 cells [3]; dose 2xIC50, listed as MK
  Early apoptotic cells: 7.29 ± 0.28% and 7.29±0.29%
HBL-100 cells [3]; dose IC50
  Dead cells: 2.69±0.13%
  Late apoptotic cells: 3.59 ± 0.82%
HBL-100 cells [3]; dose IC50, listed as MK
  Early apoptotic cells: 4.43±0.49%
  Viable cells: 89.57 ± 0.93% and 89.58±0.94%
RD TE32; RD TE32, MTT, 72 h of treatment, read-out: IC50 Values (Mean ± SD)
  IC50: 700 ± 100 nM
RD TE32; Table S1, RD TE32, read-out: IC50 (mean ± SD)
  IC50: 660 ± 40 nM
RD TE32; ratio of IC50 values healthy (HEK293) / RD TE32
  Selectivity index (SI): 16.43
HBL-100/Dox cells [4]; 16 h, vs untreated control
  mitochondrial membrane potential (MMP), TMRE fluorescence intensity: significant (p < 0.05) reduction in MMP
HBL-100/Dox cells [4]; Hoechst 33342, 16 h, IC50 values (MK 1.8 µM)
  number of cells with nuclear morphology changes: 33.1%
P-gp
  P-gp inhibitory activity: extremely low P-gp inhibitory activity
P-gp; MK 2 μM, verapamil 30 μM, listed as MK
  MAF (MDR activity functional): 0.22±0.1 and 0.22
HBL-100/Dox cells [5]; 72 h, 30 μM verapamil
  number of living cells, compound vs its combination with verapamil: remained unchanged
HBL-100/Dox cells [5]; MK 0.6 μM combined with Dox
  potentiation in the effectiveness of Dox: no potentiation
